How the values were obtained:
[1] = target: T1, human mGlu 5a receptor (Homo sapiens, UniProt P41594); assay: [3H]MPEP competition binding on membranes of EBNA cells transfected with human mGlu 5a receptor; details: [3H]MPEP (2 nM) competition, 1 h at 4° C., EBNA cell membranes
T1 construct: expressed in transfected cells; host or cells: EBNA cells (transient transfection); cell membrane homogenates
Protocol: The pharmacological activity of the compounds was tested using the following method: For binding experiments, cDNA encoding human mGlu 5a receptor was transiently transfected into EBNA cells using a procedure described by Schlaeger and Christensen [Cytotechnology 15:1-13 (1998)]. Cell membrane homogenates were stored at −80° C. until the day of assay where upon they were thawed and resuspended and polytronised in 15 mM Tris-HCl, 120 mM NaCl, 100 mM KCl, 25 mM CaCl2, 25 mM MgCl2 binding buffer at pH 7.4 to a final assay concentration of 20 μg protein/well.
Saturation isotherms were determined by addition of twelve [^3H]MPEP concentrations (0.04-100 nM) to these membranes (in a total volume of 200 μl) for 1 h at 4° C. Competition experiments were performed with a fixed concentration of [^3H]MPEP (2 nM) and IC50 values of test compounds evaluated using 11 concentrations (0.3-10,000 nM). Incubations were performed for 1 h at 4° C.
At the end of the incubation, membranes were filtered onto unifilter (96-well white microplate with bonded GF/C filter preincubated 1 h in 0.1% PEI in wash buffer, Packard Bio-Science, Meriden, Conn.) with a Filtermate 96 harvester (Packard BioScience) and washed 3 times with cold 50 mM Tris-HCl, pH 7.4 buffer. Nonspecific binding was measured in the presence of 10 μM MPEP. The radioactivity on the filter was counted (3 min) on a Packard Top-count microplate scintillation counter with quenching correction after addition of 45 μl of microscint 40 (Canberra Packard S. A., Zürich, Switzerland) and shaking for 20 min.
For binding experiments the Ki values of the compounds tested are given. The Ki value is defined by the following formula: […]
in which the IC50 values are those concentrations of the compounds tested which cause 50% inhibition of the competing radioligand ([^3H]MPEP). L is the concentration of radioligand used in the binding experiment and the Kd value of the radioligand is empirically determined for each batch of membranes prepared.

T1 sequence (P41594 21-1180 isoform P41594-2 limits assumed): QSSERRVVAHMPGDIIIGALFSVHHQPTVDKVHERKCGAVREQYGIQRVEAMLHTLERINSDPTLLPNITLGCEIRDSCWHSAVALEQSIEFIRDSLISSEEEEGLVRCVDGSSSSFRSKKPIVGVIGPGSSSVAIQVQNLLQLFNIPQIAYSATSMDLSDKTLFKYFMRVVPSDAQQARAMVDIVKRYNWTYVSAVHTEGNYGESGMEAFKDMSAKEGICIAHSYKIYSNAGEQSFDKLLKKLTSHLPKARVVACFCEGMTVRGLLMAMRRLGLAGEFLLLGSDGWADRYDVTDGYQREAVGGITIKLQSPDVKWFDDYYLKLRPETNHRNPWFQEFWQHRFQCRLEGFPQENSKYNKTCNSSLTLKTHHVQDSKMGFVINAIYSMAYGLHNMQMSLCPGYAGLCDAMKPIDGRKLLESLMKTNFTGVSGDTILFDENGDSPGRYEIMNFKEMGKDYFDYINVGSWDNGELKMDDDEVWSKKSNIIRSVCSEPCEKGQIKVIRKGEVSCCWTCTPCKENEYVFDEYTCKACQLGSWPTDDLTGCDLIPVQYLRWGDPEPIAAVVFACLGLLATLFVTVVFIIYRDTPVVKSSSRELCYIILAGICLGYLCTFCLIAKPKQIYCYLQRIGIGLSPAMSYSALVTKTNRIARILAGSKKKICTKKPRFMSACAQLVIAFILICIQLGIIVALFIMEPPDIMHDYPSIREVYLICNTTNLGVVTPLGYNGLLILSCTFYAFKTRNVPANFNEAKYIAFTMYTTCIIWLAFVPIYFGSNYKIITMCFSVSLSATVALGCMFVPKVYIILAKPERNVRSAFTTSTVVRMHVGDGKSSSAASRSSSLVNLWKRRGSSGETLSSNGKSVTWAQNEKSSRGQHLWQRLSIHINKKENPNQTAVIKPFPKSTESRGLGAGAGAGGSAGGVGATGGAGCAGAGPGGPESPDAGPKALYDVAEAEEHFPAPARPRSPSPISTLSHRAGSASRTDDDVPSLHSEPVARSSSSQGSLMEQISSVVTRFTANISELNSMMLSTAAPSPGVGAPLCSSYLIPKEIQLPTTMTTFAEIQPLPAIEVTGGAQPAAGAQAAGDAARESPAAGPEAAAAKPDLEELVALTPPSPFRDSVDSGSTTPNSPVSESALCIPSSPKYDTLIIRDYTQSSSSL

melting point	Ki [1]	Structure (SMILES)
139 °C	9 nM	Cc1cc(C#N)cc(C(=O)Nc2cccc(F)c2)n1 [Example 41, 4-Cyano-6-methyl-pyridine-2-carboxylic acid (3-fluoro-phenyl)-amide]
201 °C	38 nM	Cc1cc(C#N)cc(C(=O)Nc2ccn(C)n2)n1 [Example 1, 4-Cyano-6-methyl-pyridine-2-carboxylic acid (1-methyl-1H-pyrazol-3-yl)-amide]
189 °C	57 nM	COc1cccc(NC(=O)c2cc(C#N)cc(C)n2)c1 [Example 45, 4-Cyano-6-methyl-pyridine-2-carboxylic acid (3-methoxy-phenyl)-amide]
180.5 °C	143 nM	Cc1cc(C#N)c(C)c(C(=O)Nc2ccn(C)n2)n1 [Example 12, 4-Cyano-3,6-dimethyl-pyridine-2-carboxylic acid (1-methyl-1H-pyrazol-3-yl)-amide]
160 °C	9 nM	Cc1cccc(NC(=O)c2cc(C#N)cc(C)n2)c1 [Example 43, 4-Cyano-6-methyl-pyridine-2-carboxylic acid m-tolylamide]
243.5 °C	18 nM	Cc1cccc(NC(=O)c2cc(C#N)cc(C)n2)n1 [Example 47, 4-Cyano-6-methyl-pyridine-2-carboxylic acid (6-methyl-pyridin-2-yl)-amide]
164.5 °C	36 nM	CCc1cc(C#N)cc(C(=O)Nc2ccn(C)n2)n1 [Example 24, 4-Cyano-6-ethyl-pyridine-2-carboxylic acid (1-methyl-1H-pyrazol-3-yl)-amide]

Continued, compound first:

Structure (SMILES)	melting point	Ki [1]
Cc1cc(Br)cc(C(=O)Nc2ccc(F)c(C)n2)n1 [Example 10, 4-Bromo-6-methyl-pyridine-2-carboxylic acid (5-fluoro-6-methyl-pyridin-2-yl)-amide]	181.5 °C	61 nM
Cc1cccc(NC(=O)c2cc(Cl)cc(C)n2)c1 [Example 51, 4-Chloro-6-methyl-pyridine-2-carboxylic acid m-tolylamide]	95 °C	97 nM
Cc1cccc(NC(=O)c2cc(Cl)cc(C)n2)n1 [Example 36, 4-Chloro-6-methyl-pyridine-2-carboxylic acid (6-methyl-pyridin-2-yl)-amide]	130.5 °C	15 nM
Cc1cc(Cl)cc(C(=O)Nc2ccc(F)cn2)n1 [Example 18, 4-Chloro-6-methyl-pyridine-2-carboxylic acid (5-fluoro-pyridin-2-yl)-amide]	156 °C	30 nM
Cc1cc(C#N)c(C)c(C(=O)Nc2ccc(F)cn2)n1 [Example 27, 4-Cyano-3,6-dimethyl-pyridine-2-carboxylic acid (5-fluoro-pyridin-2-yl)-amide]	196.5 °C	31 nM
Cc1ccc(NC(=O)c2cc(Cl)cc(C)n2)nc1 [Example 19, 4-Chloro-6-methyl-pyridine-2-carboxylic acid (5-methyl-pyridin-2-yl)-amide]	159 °C	109 nM
Cc1cc(Br)cc(C(=O)Nc2ccc(F)cn2)n1 [Example 8, 4-Bromo-6-methyl-pyridine-2-carboxylic acid (5-fluoro-pyridin-2-yl)-amide]	160 °C	37 nM
Cc1cc(C#N)cc(C(=O)Nc2ccc(F)c(F)c2)n1 [Example 42, 4-Cyano-6-methyl-pyridine-2-carboxylic acid (3,4-difluoro-phenyl)-amide]	170 °C	117 nM

Reference: US20100227887A1 (priority 2009, published 2010)
